Laboratory results from US20210395676A1, “CARRIER FOR CELL CULTURE COMPRISING MICROCAPSULES CONTAINING NATURAL OIL” (Korea Research Institute of Chemical Technology, priority 2018, published 2021).

Tested on: artificial myocardial structure (cardiac organoid)
Test: Contractile force-based cardiac toxicity assessment of drug-treated artificial myocardial structure
Format: cell-based
Conditions: FIG. 15
Source text: Furthermore, after additionally treating an artificial myocardial structure prepared by coculturing gelatin oil capsules and cardiomyocytes with various drugs, contractile forces of the drug-treated artificial myocardial structure were checked.

SMILES | beat rates (10 nM) | contractile forces (10 nM) | beat rates (125 nM)
CC(C)NCC(O)c1ccc(O)c(O)c1 (stereo not drawn) [Isopreterenol] | accelerated | changed strongly | 
COc1ccc(CCN(C)CCCC(C#N)(c2ccc(OC)c(OC)c2)C(C)C)cc1OC (stereo not drawn) [verapamil] |  |  | slow down and become somewhat irregular
